# Measurements as given in article PMC8152814, “The modulatory role of sulfated and non-sulfated small molecule heparan sulfate-glycomimetics in endothelial dysfunction: absolute structural clarification, molecular docking and simulated dynamics, SAR analyses and ADMET studies” (RSC Medicinal Chemistry, 2021).
# Assays:
# Caco-2 cells = assay: Caco-2 permeability (bi-directional); format: in vitro ADME
# Description: (§1) Physicochemical and ADMET properties of representative glycomimetics. […]
# (§2) ymax = mean vehicle control response
# (§3) Caco-2 Permeability (A-B or Bi-directional)
# (§4) Caco-2 cells (ATCC, Virginia, USA) are used between passage numbers 40-60. Cells are seeded onto Millipore Multiscreen Transwell plates at 1 x 10^5 cells/cm2. The cells are cultured in DMEM and media is changed every two or three days. On day 20 the permeability study is performed. Cell culture and assay incubations are carried out at 37 °C in an atmosphere of 5 % CO2 with a relative humidity of 95%. On the day of the assay, the monolayers are prepared by rinsing both apical and basolateral surfaces twice with Hanks Balanced Salt Solution (HBSS) at the desired pH warmed to 37 °C. Cells are then incubated with HBSS at the desired pH in both apical and basolateral compartments for 40 min to stabilise physiological […]
# (§5) The dosing solutions are prepared by diluting test compound with assay buffer to give a final test compound concentration of 10 µM (final DMSO concentration of 1 % v/v). The fluorescent integrity marker lucifer yellow is also included in the dosing solution. Analytical standards are prepared from test compound DMSO dilutions and transferred to buffer, maintaining a 1% v/v DMSO concentration. Typical assay buffer is composed of supplemented HBSS pH 7.4 but a range of other buffers and pH values can be used.
# (§6) For assessment of A-B permeability, HBSS is removed from the apical compartment and replaced with test compound dosing solution. The apical compartment insert is then placed into a companion plate containing fresh buffer (containing 1 % v/v DMSO). For assessment of B-A permeability, HBSS is removed from the companion plate and replaced with test compound dosing solution. Fresh buffer (containing 1 % v/v DMSO) is added to the apical compartment insert, which is then placed into the companion plate.
# (§7) At 120 min the apical compartment inserts and the companion plates are separated and apical and basolateral samples diluted for analysis. Test compound permeability is assessed in duplicate. Compounds of known permeability characteristics are run as controls on each assay plate. Test and control compounds are quantified by LC-MS/MS cassette analysis using an 8-point calibration with appropriate dilution of the samples. The starting concentration (C0) is determined from the dosing solution and the experimental recovery calculated from C0 and both apical and basolateral compartment concentrations.
# (§8) The integrity of the monolayer throughout the experiment is checked by monitoring lucifer yellow permeation using fluorimetric analysis. Lucifer yellow permeation is high if monolayers have been damaged. If a lucifer yellow Papp value is above a pre-defined threshold in one individual test compound well, the compound may be re-tested or an n = 1 result is reported.
# (§9) If lucifer yellow Papp values are above the threshold in both replicate wells for a test compound, the compound is re-tested. If this re-occurs upon repeat in both wells then toxicity or inherent fluorescence of the test compound is assumed.
# (§10) The permeability coefficient (Papp) for each compound is calculated from the following […]
# (§11) Where dQ/dt is the rate of permeation of the drug across the cells, C0 is the donor compartment concentration at time zero and A is the area of the cell monolayer. C0 is obtained from analysis […]
# (§12) For bi-directional experiments, an efflux ratio (ER) is calculated from mean A-B and B-A data.
# (§13) Three control compounds are screened alongside the test compounds, atenolol (human absorption 50%), propranolol (human absorption 90%) and talinolol (a substrate for […]
# hERG = biological target: T1, hERG (Homo sapiens, UniProt Q12809); assay: hERG automated patch clamp (IonWorks, CHO-hERG cells); format: cell-based; settings: CHO cells stably transfected with hERG, top concentration 25 µM
# T1 construct: host or cells: CHO cells stably transfected with hERG
# T1 sequence (Q12809 whole entry): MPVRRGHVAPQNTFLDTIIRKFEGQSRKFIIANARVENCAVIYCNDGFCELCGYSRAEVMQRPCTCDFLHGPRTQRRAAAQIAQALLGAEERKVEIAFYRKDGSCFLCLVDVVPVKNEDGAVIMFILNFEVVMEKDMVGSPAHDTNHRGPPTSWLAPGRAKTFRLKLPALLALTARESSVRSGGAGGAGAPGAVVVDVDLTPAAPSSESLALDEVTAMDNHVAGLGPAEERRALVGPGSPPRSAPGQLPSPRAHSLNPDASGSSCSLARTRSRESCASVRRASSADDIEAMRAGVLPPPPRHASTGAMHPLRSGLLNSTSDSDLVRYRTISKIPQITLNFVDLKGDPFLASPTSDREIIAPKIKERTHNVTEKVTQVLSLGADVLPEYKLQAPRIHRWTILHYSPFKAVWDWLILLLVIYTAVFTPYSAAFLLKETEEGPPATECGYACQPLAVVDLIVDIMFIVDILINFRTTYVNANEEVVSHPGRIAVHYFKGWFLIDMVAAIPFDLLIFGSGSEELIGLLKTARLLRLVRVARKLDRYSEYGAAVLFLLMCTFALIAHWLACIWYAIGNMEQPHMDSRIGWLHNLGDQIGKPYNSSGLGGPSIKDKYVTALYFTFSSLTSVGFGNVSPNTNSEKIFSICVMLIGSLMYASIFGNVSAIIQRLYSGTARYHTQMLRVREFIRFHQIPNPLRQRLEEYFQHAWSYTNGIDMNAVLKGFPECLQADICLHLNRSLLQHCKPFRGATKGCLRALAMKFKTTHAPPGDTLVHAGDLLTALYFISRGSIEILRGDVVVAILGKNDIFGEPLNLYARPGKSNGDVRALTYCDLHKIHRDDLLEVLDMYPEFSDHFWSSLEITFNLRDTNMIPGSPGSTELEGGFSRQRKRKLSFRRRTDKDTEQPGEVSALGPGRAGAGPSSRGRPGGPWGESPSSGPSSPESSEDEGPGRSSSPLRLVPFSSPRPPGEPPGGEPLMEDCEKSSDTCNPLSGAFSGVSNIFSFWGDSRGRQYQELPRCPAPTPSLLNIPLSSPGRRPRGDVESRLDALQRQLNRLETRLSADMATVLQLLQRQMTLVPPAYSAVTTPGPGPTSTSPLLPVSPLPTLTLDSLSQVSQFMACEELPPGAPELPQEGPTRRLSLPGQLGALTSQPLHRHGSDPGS
# Description: Physicochemical and ADMET properties of representative glycomimetics. […] The final incubation volume is 50 µL. […] Two control compounds are included with each species. All incubations are performed singularly for each test compound. […] The control (minus NADPH) is incubated for 45 min. […] The cells are then positioned over a small hole at the bottom of each well by applying a vacuum beneath the plate to form an electrical seal. The vacuum is applied through a single compartment common to all wells which is filled with intracellular solution (buffered to pH 7.2 with HEPES). The resistance of each seal is measured via a common ground-electrode in the intracellular compartment and individual electrodes placed into each of the upper wells. Electrical access to the cell is then achieved by circulating a perforating agent, amphotericin B, underneath the PatchPlateTM. The pre-compound hERG current is then measured. An electrode is positioned in the extracellular compartment and a holding potential of -80 mV applied for 15 s. The hERG channels are then activated by applying a depolarising step to +40 mV for 5 s and then clamped at -50 mV for 4 s to elicit the hERG tail current, before returning to -80 mV for 0.3 s. […]
# [1] = Caco-2 permeability (bi-directional); format: in vitro ADME; settings: human, Caco-2; A2B, 10 µM, 120 min
# Description: as §1, §2, §3, §4, §5, §6, §7, §8, §9, §10, §11, §12, §13
"Caco-2 (A2B Papp) (Caco-2 cells; A2B, 10 µM, 120 min)",SMILES,Caco-2 cell permeability levels (Caco-2 cells),"Caco-2 (B2A Papp) (Caco-2 cells; 10 µM, 120 min)",IC50 (hERG) [µM],"Papp A→B at 2 h, 10 µM [1] [×10⁻⁶ cm/s]","IC50 at 300 s (hERG; human, pH 7.2) [µM]"
Not detected,"O=C([O-])c1cc(OC[C@H](COS(=O)(=O)[O-])OS(=O)(=O)[O-])ccc1OCC(COS(=O)(=O)[O-])OS(=O)(=O)[O-].[Na+].[Na+].[Na+].[Na+].[Na+] (mixture of isomers) [β-5, sodium 5-((R)-2,3-bis(sulfonatooxy)propoxy)-2-(2,3-bis(sulfonatooxy)propoxy)benzoate]",low or not detected,Not detected,> 25,–,–
–,"COC(=O)c1cc(OC[C@H](COS(=O)(=O)[O-])OS(=O)(=O)[O-])ccc1OCCCCOS(=O)(=O)[O-].[Na+].[Na+].[Na+] [Compound R-10, sodium (R)-3-(3-(methoxycarbonyl)-4-(4-(sulfonatooxy)butoxy)phenoxy)propane-1,2-diyl bis(sulfate)]",low or not detected,Not detected,–,0.931,> 25
